This is an account of results in patent US9856230B2 (University of Sunderland, priority 2012, dated 2018).

Where two headings read alike, the source gives them in different places.

Assay [1] concerns the target T1, Trx system (thioredoxin/thioredoxin reductase) (Homo sapiens, UniProt Q16881).
T1 sequence (Q16881 151-649 limits assumed): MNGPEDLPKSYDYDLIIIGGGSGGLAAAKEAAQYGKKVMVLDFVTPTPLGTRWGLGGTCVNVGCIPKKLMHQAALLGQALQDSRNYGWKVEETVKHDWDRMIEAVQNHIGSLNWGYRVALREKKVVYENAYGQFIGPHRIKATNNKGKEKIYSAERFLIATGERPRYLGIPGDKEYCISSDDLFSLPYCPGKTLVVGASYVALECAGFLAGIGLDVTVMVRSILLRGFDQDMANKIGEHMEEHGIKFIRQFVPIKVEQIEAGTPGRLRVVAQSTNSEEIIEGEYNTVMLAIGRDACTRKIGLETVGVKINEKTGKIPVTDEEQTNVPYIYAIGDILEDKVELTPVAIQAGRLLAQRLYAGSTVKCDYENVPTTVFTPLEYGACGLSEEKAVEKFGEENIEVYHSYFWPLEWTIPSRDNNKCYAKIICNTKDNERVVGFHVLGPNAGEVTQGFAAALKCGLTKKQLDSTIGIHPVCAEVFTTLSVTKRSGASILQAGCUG
Put plainly: Thioredoxin/thioredoxin reductase insulin reduction assay. The settings on record: for inhibition at 500 µM: compound at 500 μM, read-out: Inhib. (%) Trx Syst. at 500 μM. Format: biochemical. How it is done:
Thioredoxin/thioredoxin reductase inhibition was measured using the insulin reduction assay (Stevens, M. F. G., Pallis, M., Bradshaw, T. D., Westwell, A. D., Grundy, M., Russell, N, “Induction of apoptosis without redox catastrophe by thioredoxin-inhibitory compounds”, Biochem. Pharmacol. (2003) 66, 1695-1705). […] The first part of the assay involves TrxR reducing oxidized Trx via NADPH. The reduced Trx then reduces disulfide bonds in the insulin, leaving exposed thiol groups, as summarized by the Trx reaction scheme.
The addition of dithionitrobenzoic acid (DTNB) to the free thiol groups of the insulin cleaves the disulfide bond in the DTNB which gives rise to a yellow colour (DTNB reaction scheme). The yellow colour is observed under basic conditions due to the conjugation of electrons between the thiolate anion and the nitro group of thionitrobenzoic acid (TNB). The level of thioredoxin/thioredoxin reductase inhibitory activity is […] proportional to the intensity of the yellow colour.
Addition of DTNB to reduced insulin produces thionitrobenzoic acid (TNB) and a mixed insulin disulfide. DTNB has very little absorbance, but under mild basic conditions TNB forms an anion that gives an intense yellow colour at 412 nm.
Synthesized compounds were tested for thioredoxin/thioredoxin reductase activity using the thioredoxin/thioredoxin reductase insulin assay described above under the heading “Assays”. The compounds were also tested for antiproliferative activity using the MTT assay described above under the heading “Assays”. Theoretical C log P values for the compounds were calculated using ChemDraw. The C log P of a compound is the logarithm of the compound's partition coefficient between n-octanol and water log(coctanol/cwater) and represents a measure of the compound's hydrophilicity and hydrophobicity. […]

For assay [2], the system named is HPV-16 immortalized keratinocyte cell line (CCD-1106 KERTr). The assay can be described thus: cells. The settings on record: Homo sapiens. Format: cell-based.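 Also: growth inhibition read as spectrophotometric formazan colour from mitochondrial dehydrogenase cleavage of MTT, proportional to viable cell number, modelling psoriatic hyperproliferation, lower values mean stronger antiproliferative activity.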
Text: The assay is based on the ability of a mitochondrial dehydrogenase enzyme to cleave the tetrazolium rings of the yellow MTT to form dark blue formazan crystals (MTT reaction scheme). These crystals are mostly impermeable to cell membranes and, consequently, they accumulate in healthy viable cells. The addition of detergent solubilizes the cells, which results in the liberation of purple formazan crystals. The number of viable cells is directly proportional to the level of purple formazan produced. This colour change can be measured by a spectrophotometer enabling quantification of changes in cellular proliferation. Compound activity measured by the MTT assay (or other proliferation related assay) may be given as a GI50 value.
A human papilloma virus-16 (HPV-16) immortalized keratinocyte cell line (CCD-1106 KERTr) was used in the MTT cell viability assay.
Antiproliferative activity is indicated by the MTT GI50 (μM), where a lower value indicates higher activity.
Setting [3] is: insulin reduction assay, read-out: Trx System IC50.
Setting [4] is: CCD-1106 KERTr keratinocytes, read-out: MTT GI50.

Regarding `COC(=O)c1ccc(NS(=O)(=O)c2ccc(OC(F)(F)F)cc2)c(NS(=O)(=O)c2ccc(OC(F)(F)F)cc2)c1` [(19c), methyl 3,4-bis-(4-trifluoromethoxybenzenesulfonylamino)benzoate], in assay [1], the inhibition at 500 µM amounted to 43.7%. For the same compound, the concentration for half-maximal inhibition (IC50) in assay [1] (setting [3]) stood at 546 µM. The GI50 in assay [2] (setting [4]) was 2.2 µM.
Turning to `CC(C)=CCN(CC=C(C)C)Cc1ccc(NS(=O)(=O)c2ccc(C)cc2)c(NS(=O)(=O)c2ccc(C)cc2)c1` [(31), [3,4-bis-(toluene-4-sulfonylamino)benzyl]bis-(3-methyl-but-2-enyl)amine], the inhibition at 500 µM in assay [1] came out at 70%. Moreover, in assay [2] (setting [4]), the GI50 came to 7.9 µM.
`Cc1ccc(S(=O)(=O)Nc2ccc(CN)cc2NS(=O)(=O)c2ccc(C)cc2)cc1` [(30), 3,4-bis(toluene-4-sulfonylamino)benzyl amine]: the inhibition at 500 µM in assay [1] was 98.7%. The IC50 in assay [1] (setting [3]) came to 377 µM. Besides, the GI50 in assay [2] (setting [4]) is 162 µM.
In the same order, the values of `Cc1ccc(S(=O)(=O)Nc2ccc(C=O)cc2NS(=O)(=O)c2ccc(C)cc2)cc1` [(37), 3,4-bis-(toluene-4-sulfonylamino)benzaldehyde] are 81%, 374 µM and 12 µM.
With `COC(=O)c1ccc(NS(=O)(=O)c2ccc([N+](=O)[O-])cc2)c(NS(=O)(=O)c2ccc([N+](=O)[O-])cc2)c1` [(19a), methyl 3,4-bis-(4-nitrobenzenesulfonylamino)benzoate], in assay [1], the IC50 came to 475 µM and the inhibition at 500 µM stood at 53.3%. Besides, the 50% growth inhibitory concentration (GI50) in assay [2] (CCD-1106, read-out: MTT GI50 (μM)) was 11.2 µM.
For `Cc1ccc(S(=O)(=O)Nc2ccc(NS(N)(=O)=O)cc2NS(=O)(=O)c2ccc(C)cc2)cc1` [(33c), 3,4-bis(toluene-4-sulfonylamino)phenylsulfamide], the inhibition at 500 µM in assay [1] stood at 38.6%. Also, in assay [2] (setting [4]), the GI50 came out at 114 µM.
In the same order, the values of `Cc1ccc(S(=O)(=O)Nc2ccc(C#N)cc2NS(=O)(=O)c2ccc(C)cc2)cc1` [(21b), 3,4-bis-(toluene-4-sulfonylamino)benzonitrile] are 58.4% and 4.7 µM.
For the compound `C=CC(=O)Nc1ccc(NS(=O)(=O)c2ccc(C)cc2)c(NS(=O)(=O)c2ccc(C)cc2)c1` [(39), N-[3,4-bis-(toluene-4-sulfonylamino)-phenyl]acrylamide], the inhibition at 500 µM in assay [1] amounted to 73.9%. Also, in assay [1] (setting [3]), the half-maximal inhibitory concentration (IC50) came to 156 µM. For the same compound, the GI50 in assay [2] (setting [4]) was 18.8 µM.
On to `O=C(Nc1ccc(NS(=O)(=O)c2ccc(F)cc2)c(NS(=O)(=O)c2ccc(F)cc2)c1)c1ccco1` [Compound (103)], for which, in assay [2] (CCD-1106, read-out: IC50 in MTT assay (antiproliferative activity)), the half-inhibitory concentration (IC50) was 36.2 µM.
As to `Cc1ccc(S(=O)(=O)Nc2ccc(NC(=O)Cn3ccc(=O)[nH]c3=O)cc2NS(=O)(=O)c2ccc(C)cc2)cc1` [(42), N-[3,4-bis-(toluene-4-sulfonylamino)phenyl]-2-(2,4-dioxo-3,4-dihydro-2H-pyrimidin-1-yl)acetamide], the inhibition at 500 µM in assay [1] was determined as 70.7%. Besides, in assay [1] (setting [3]), the half-inhibitory concentration (IC50) was found to be 339 µM. Moreover, the GI50 in assay [2] (setting [4]) amounted to 100 µM.
In the same order, the values of `COC(=O)c1ccc(NS(=O)(=O)c2ccc(C(F)(F)F)cc2)c(NS(=O)(=O)c2ccc(C(F)(F)F)cc2)c1` [(19b), methyl 3,4-bis-(4-trifluoromethylbenzenesulfonylamino)benzoate] are 33.4%, 429 µM and 5.4 µM.
On to `Cc1ccc(S(=O)(=O)Nc2ccc(NC(=O)Nc3ccccc3)cc2NS(=O)(=O)c2ccc(C)cc2)cc1` [(33e), phenyl [3,4-bis(toluene-4-sulfonylamino)]phenyl urea], for which the inhibition at 500 µM in assay [1] came out at 0%. In assay [2] (setting [4]), the 50% growth inhibitory concentration (GI50) was found to be 6.2 µM.
In the same order, the values of `COC(=O)c1ccc(NS(=O)(=O)c2ccc(OC)cc2)c(NS(=O)(=O)c2ccc(OC)cc2)c1` [(19d), methyl 3,4-bis-(4-methoxybenzenesulfonylamino)benzoate] are 14.6% and 5.2 µM.
In the case of `Cc1ccc(S(=O)(=O)Nc2ccc(-c3ccc(F)c(C#N)c3)cc2NS(=O)(=O)c2ccc(C)cc2)cc1` [(53), 3′,4′-bis-(toluene-4-sulfonylamino)-4-fluorobiphenyl-3-carbonitrile], the inhibition at 500 µM in assay [1] was determined as 71.1%. For the same compound, the 50% inhibitory concentration (IC50) in assay [1] (setting [3]) turned out to be 106 µM. In addition, in assay [2] (setting [4]), the GI50 was 0.156 µM.
In the same order, the values of `COC(=O)c1ccc(NS(=O)(=O)c2ccc(C)cc2)c(NS(=O)(=O)c2ccc(C)cc2)c1` [(12), methyl 3,4-diamino-N,N-bis-(toluene-4-sulfonylamino)benzoate] are 30%, 1360 µM and 4.1 µM.
Turning to `Cc1ccc(S(=O)(=O)Nc2ccc(CO)cc2NS(=O)(=O)c2ccc(C)cc2)cc1` [(36), (3,4-bis-(toluene-4-sulfonylamino)phenyl)methanol], in assay [1], the inhibition at 500 µM is 50%. Moreover, in assay [2] (setting [4]), the GI50 is 19.1 µM.
In the case of `Cc1ccc(S(=O)(=O)Nc2ccc(NC(=O)c3cccs3)cc2NS(=O)(=O)c2ccc(C)cc2)cc1` [(55), N-(3,4-bis-(toluene-4-sulfonylamino)phenyl)-2-thiophenecarboxamide], the inhibition at 500 µM in assay [1] came to 61.5%. Besides, the IC50 in assay [1] (setting [3]) turned out to be 494 µM. Further, the GI50 in assay [2] (setting [4]) turned out to be 3.3 µM.
With `Cc1ccc(S(=O)(=O)Nc2ccc(-c3noc(C(C)C)n3)cc2NS(=O)(=O)c2ccc(C)cc2)cc1` [(21d), 1-(5′-isopropyl-1′,2′,4′-oxadiazol-3-yl)-3,4-bis-(toluene-4-sulfonylamino)benzene], the inhibition at 500 µM in assay [1] was 13.9%. In addition, the GI50 in assay [2] (setting [4]) was 3.2 µM.
In the same order, the values of `Cc1ccc(S(=O)(=O)Nc2ccc(C(=O)O)cc2NS(=O)(=O)c2ccc(C)cc2)cc1` [(35), 3,4-bis-(toluene-4-sulfonylamino)benzoic acid] are 20% and 67.3 µM.
For `COC(=O)c1ccc(NS(=O)(=O)c2ccc(Cl)cc2)c(NS(=O)(=O)c2ccc(Cl)cc2)c1` [(27), methyl 3,4-bis-(4-chlorobenzenesulfonylamino)benzoate], the inhibition at 500 µM in assay [1] is 62.3%. In assay [1] (setting [3]), the IC50 was found to be 277 µM. The 50% growth inhibitory concentration (GI50) in assay [2] (setting [4]) turned out to be 0.64 µM.
On to `COC(=O)c1ccc(NS(=O)(=O)c2ccc(N)cc2)c(NS(=O)(=O)c2ccc(N)cc2)c1` [(19e), methyl 3,4-bis-(4-aminobenzenesulfonylamino)benzoate], for which the inhibition at 500 µM in assay [1] was found to be 86.7%. Further, in assay [1] (setting [3]), the half-maximal inhibitory concentration (IC50) was 386 µM. In assay [2] (setting [4]), the GI50 is greater than 420 µM.
As for `Cc1ccc(S(=O)(=O)Nc2ccc(N)cc2NS(=O)(=O)c2ccc(C)cc2)cc1` [(33b), 3,4-bis(toluene-4-sulfonylamino)phenyl amine], the inhibition at 500 µM in assay [1] is 31.6%. Further, the concentration for 50% growth inhibition (GI50) in assay [2] (setting [4]) was determined as 48.9 µM.
In the same order, the values of `CCOC(=O)CN(CC(=O)OCC)Cc1ccc(NS(=O)(=O)c2ccc(C)cc2)c(NS(=O)(=O)c2ccc(C)cc2)c1` [(32), ethyl {[3,4-bis-(toluene-4-sulfonylamino)benzyl]-ethoxycarbonylmethyl-amino}acetate] are 58.1% and 9 µM.
Regarding `Cc1ccc(S(=O)(=O)Nc2ccc(C(=O)NC(C)(C)C)cc2NS(=O)(=O)c2ccc(C)cc2)cc1` [(28), N-tert-butyl-3,4-bis-(toluene-4-sulfonylamino)benzamide], the inhibition at 500 µM in assay [1] came out at 10%. In addition, the 50% growth inhibitory concentration (GI50) in assay [2] (setting [4]) was 5.1 µM.
Regarding `COC(=O)c1ccc(NS(=O)(=O)c2ccc(Cl)s2)c(NS(=O)(=O)c2ccc(Cl)s2)c1` [(25), methyl 3,4-bis-(5-chloro-thiophene-2-sulfonylamino)benzoate], in assay [1], the inhibition at 500 µM was determined as 61%. Further, in assay [2] (setting [4]), the 50% growth inhibitory concentration (GI50) is 1.2 µM.
In the same order, the values of `Cc1ccc(S(=O)(=O)Nc2ccc(C(N)=O)cc2NS(=O)(=O)c2ccc(C)cc2)cc1` [(29), 3,4-bis-(toluene-4-sulfonylamino)benzamide] are 19.9% and 104 µM.
In the same order, the values of `CCNC(=O)Nc1ccc(NS(=O)(=O)c2ccc(C)cc2)c(NS(=O)(=O)c2ccc(C)cc2)c1` [(33d), ethyl [3,4-bis(toluene-4-sulfonylamino)]phenyl urea] are 88.3% and 55.9 µM.
